Test results as given in patent publication US8652771B2, “Measurement of succinate in urine samples as a biomarker of kidney damage in diabetic subjects” (University of Souther California, priority 2008, dated 2014).
Where two headings read alike, the source gives them in different places.

Assays:
[1] = tested on: vascular endothelium; test: Endothelial [Ca2+]i (fluo-4/fura red) and NO production (DAF-FM) in microperfused afferent arteriole-glomerulus; parameters: species or system mouse; conditions: glucose 5.5 to 25.5 mM or succinate 5 mM in arteriolar perfusate
Method: FIG. 6: GPR91 signaling in the vascular endothelium. […] Scale bar: 20 μm. […] KO (^−/−); n=6 each. […] A superficial afferent arteriole with its glomerulus was microdissected from freshly harvested kidney slices. The afferent arteriole was cannulated and perfused using a method similar to those described previously (37). Briefly, dissection media were prepared from DMEM mixture F-12 (Sigma-Aldrich). […] Vessel perfusion and bath fluid was a modified Krebs-Ringer-HCO3 buffer containing 115 mM NaCl, 25 mM NaHCO3, 0.96 mM NaH2PO4, 0.24 mM Na2HPO4, 5 mM KCl, 1.2 mM MgSO4, 2 mM CaCl2, 5.5 mM d-glucose and 100 μM l-arginine. […] Each preparation was transferred to a thermoregulated Lucite chamber mounted on the Leica inverted microscope. The preparation was kept in the dissection solution, and also, temperature was kept at 4° C. until cannulation of the arteriole was completed and then was gradually raised to 37° C. for the remainder of the experiment. In some experiments, the endothelium was mechanically removed from the vessel wall with the help of the perfusion pipette and by perfusing the control solution under the endothelium (between the endothelium and smooth muscle). […] The acidotropic fluorophore quinacrine (Sigma-Aldrich), which is an intravital fluorescent dye selective for dense-core secretory granules, was used for labeling the renin granules (12, 13, 15). […]

[2] = tested on: VSMCs; conditions: saturating doses of succinate
Excerpt: (§1) FIG. 5: Localization of GPR91 in GENCs. […] C, control mix with no cDNA; WK, whole kidney from WT GPR91^+/+ or KO GPR91^−/− mice. […] JGC, renin-producing JG cells. (B-E) Localization of GPR91 protein in rat kidney with immunohistochemistry. […] One region of the glomerulus (indicated by a rectangle) is magnified in C and D for high-resolution colocalization studies. […] DIC background is merged with fluorescence to show glomerular morphology. (E) Negative control using no GPR91 primary antibody. Nuclei are medium gray. Scale bar: 10 μm (B-E).

[3] = tested on: JG cells; conditions: saturating doses of succinate
Excerpt: as §1

[4] = tested on: HEK cells; conditions: saturating doses of succinate
Excerpt: as §1

[5] = tested on: GENCs; test: GENC [Ca2+]i, fura-2 spectrofluorometry; format: cell-based, mouse; conditions: for GENC intracellular Ca2+ [Ca2+]i level: high glucose 25.5 mM, succinate 5 mM, malonate 1 mM, fluorocitrate 100 p.M, normal glucose baseline 133±14 nM
[6] = tested on: GENCs; conditions: read-out: EC50, PGE2 release from GENCs; dose-response, FIG. 6D
Excerpt: Specially engineered biosensor cells, HEK293 cells, expressing the Ca^2+-coupled PGE2 receptor EP1 were loaded with fluo-4 and positioned next to GENCs in culture. […] Normalized changes in HEK293-EP1 biosensor cell fluo-4 intensity are shown and served as an index of PGE2 release. n=6 for each dose.

[7] = tested on: JGA (renin-producing JG cells); test: In vitro microperfused afferent arteriole-glomerulus (JGA) renin release, quinacrine fluorescence confocal imaging; parameters: species or system rabbit; conditions: for renin release (change in quinacrine fluorescence intensity [F0-F] normalized to baseline [F0]): agent alone in afferent arteriole perfusate, within 30 minutes, glucose 25.5 mM, equimolar mannitol, α-ketoglutarate 5 mM, otherwise normal glucose 5.5 mM; for EC50: dose-response, FIG. 2C; for effect on high glucose level-induced renin release and afferent arteriole diameter increase (FIG. 1C): high glucose 25.5 mM
Method: (A and B) Real-time confocal fluorescence imaging of renin content (quinacrine, light gray) and vascular diameter (cell membranes are labeled with R-18, dark gray) in the in vitro microperfused terminal afferent arteriole (AA) with attached glomerulus (G) freshly isolated from rabbit kidney. […] Scale bar: 20 μm.
(A) Overview of the TCA cycle and sites of inhibition with fluorocitrate (F: 100 μM: blocks aconitase in step 2) and malonate (MAL; 1 mM; blocks succinate dehydrogenase in step 6).
A superficial afferent arteriole with its glomerulus was microdissected from freshly harvested kidney slices. The afferent arteriole was cannulated and perfused using a method similar to those described previously (37). Briefly, dissection media were prepared from DMEM mixture F-12 (Sigma-Aldrich). Fetal bovine serum (Hyclone) was added at a final concentration of 3%. Vessel perfusion and bath fluid was a modified Krebs-Ringer-HCO3 buffer containing 115 mM NaCl, 25 mM NaHCO3, 0.96 mM NaH2PO4, 0.24 mM Na2HPO4, 5 mM KCl, 1.2 mM MgSO4, 2 mM CaCl2, 5.5 mM d-glucose and 100 μM l-arginine. The solutions were aerated with 95% O2 and 5% CO2 for 45 minutes, and their pH was adjusted to 7.4. Each preparation was transferred to a thermoregulated Lucite chamber mounted on the Leica inverted microscope. The preparation was kept in the dissection solution, and also, temperature was kept at 4° C. until cannulation of the arteriole was completed and then was gradually raised to 37° C. for the remainder of the experiment. In some experiments, the endothelium was mechanically removed from the vessel wall with the help of the perfusion pipette and by perfusing the control solution under the endothelium (between the endothelium and smooth muscle). […] The bath was continuously aerated with 95% O2 and 5% CO2. The acidotropic fluorophore quinacrine (Sigma-Aldrich), which is an intravital fluorescent dye selective for dense-core secretory granules, was used for labeling the renin granules (12, 13, 15). The membrane staining octadecyl rhodamine B chloride R18 and the nuclear stain Hoechst 33342 were used to visualize the glomerulus with its attached afferent arteriole. For ratiometric Ca2+ imaging, the fluo-4/fura red pair was used and calibrated as described before (37). DAF-FM was used to monitor changes in NO production as described (38). All fluorophores were from Invitrogen.

[8] = succinate 5 mM, malonate 1 mM, fluorocitrate 100 μM
[9] = agent combined with high glucose 25.5 mM, succinate 5 mM, malonate 1 mM, fluorocitrate 100 μM, L-NAME 1 mM, indomethacin 50 μM
[10] = L-NAME 1 mM, indomethacin 50 μM

SMILES | GENC intracellular Ca2+ [Ca2+]i level [5] [nM] | renin release (change in quinacrine fluorescence intensity [F0-F] normalized to baseline [F0]) [7, 8] | renin release (change in quinacrine fluorescence intensity normalized to baseline) [7, 9] | other results
O=C(O)CCC(=O)O [succinate] | 549 ± 29 | 73±2 Δ% | 56±3 Δ% | endothelial NO production [1]: significant elevations; endothelial [Ca2+]i [1]: significant elevations; [Ca2+]i elevation [2]: did not cause [Ca2+]i elevations; [Ca2+]i elevation [3]: did not cause [Ca2+]i elevations; [Ca2+]i elevation [4]: did not cause [Ca2+]i elevations; [Ca2+]i response in GENCs with GPR91 silenced ([5]; GPR91 siRNA): no [Ca2+]i response; EC50 ([5]; succinate added to the superfusate, FIG. 5G, read-out: EC50, GENC Ca2+ signal): 69 µM; EC50 [6]: 214 µM; EC50 [7]: 335 µM
O=C(O)CCC(=O)C(=O)O [α-ketoglutarate] |  | no effect |  | 
O=C(O)CC(=O)O [malonate] | 377 ± 22 | 54±7 Δ% | 77±2 Δ% | EC50 [7]: 367 µM; renin release (change in quinacrine fluorescence intensity normalized to baseline) ([7]; malonate 1 mM plus succinate 5 mM): 83±4 Δ%
COC(=O)[C@@H](N)CCCNC(=N)N[N+](=O)[O-] [L-NAME] |  |  | 14±6 Δ% | effect on high glucose level-induced renin release and afferent arteriole diameter increase (FIG. 1C) [7, 10]: inhibited the effects of high glucose level
COc1ccc2c(c1)c(CC(=O)O)c(C)n2C(=O)c1ccc(Cl)cc1 [indomethacin] |  |  | 13±2 Δ% | effect on high glucose level-induced renin release and afferent arteriole diameter increase (FIG. 1C) [7, 10]: inhibited the effects of high glucose level
OC[C@@H](O)[C@@H](O)[C@H](O)[C@H](O)CO [mannitol] |  | 19±4 Δ% |  | 
O=C(O)CC(O)(C(=O)O)C(F)C(=O)O (centres unmarked) [fluorocitrate] | 143 ± 11 | 11±2 Δ% | 16±2 Δ% | 
